{"source": "patent US20110046482A1", "about": "“METHODS FOR REDUCING TOXICITIES ASSOCIATED WITH MEDICAL PROCEDURES EMPLOYING RADIOGRAPHIC CONTRAST AGENTS” (OREGON HEALTH & SCIENCE UNIVERSITY, priority 2006, published 2011)", "key": {"[1]": {"experiment": "Clearance of NAC, blood thiol concentration every 15 minutes by colorimetric kit", "type": "in vivo", "settings": "rat, intravenous, other: IA into the descending aorta, IV or IA into the descending aorta, 140, 400, 1000 and 1200 mg/kg, all doses", "method": "NAC was administered either IV or IA into the descending aorta, and blood samples were assessed for thiol concentration every 15 minutes using a colorimetric kit. The NAC doses tested were 140, 400, 1000, and 1200 mg/kg."}, "[2]": {"experiment": "Effect of route of administration on biodistribution of radiolabelled NAC", "type": "in vivo", "settings": "rats", "method": "Radiolabelled NAC in combination with unlabeled NAC (140 mg/kg) was administered to rats with the following routes of infusion: IV; IA into the right carotid artery for brain infusion; aortic infusion (IA infusion via the left external carotid artery with left internal artery occlusion) to avoid brain infusion; and IA (right carotid) with osmotic Blood Brain Barrier Disruption (BBBD) to maximize delivery to the brain."}, "[3]": {"experiment": "Blood/serum levels of NAC and thiols by HPLC after IV or PO NAC", "type": "in vivo", "method": "NAC is known to enhance de novo glutathione synthesis, and may also impact levels of other thiols. […] In contrast to the IV results, the group given NAC 1200 mg/kg by the PO route had very low levels of serum NAC (0.12±0.12) at 15 min or 60 min after infusion."}, "cisplatin nephrotoxicity": {"system": "cisplatin nephrotoxicity", "experiment": "Cisplatin nephrotoxicity after NAC IV, PO or IA in the descending aorta", "type": "in vivo", "settings": "rats", "method": "IV NAC was nephroprotective at a dose of 400 mg/kg but not at a lower dose of 50 mg/kg."}, "[4]": {"system": "cisplatin-induced nephrotoxicity", "experiment": "Cisplatin (10 mg/kg IP) nephrotoxicity model, BUN, creatinine and weight 3 days after treatment", "type": "in vivo", "settings": "rats", "method": "There are few animal models of contrast-induced nephropathy, and the reported models are not easily reproducible.\nRats were tested for renal toxicity 3 days after treatment by measuring serum concentrations of BUN and creatinine (CR)."}, "[5]": {"system": "cellular apoptosis proteins", "experiment": "NAC-mediated inhibition of cisplatin-induced apoptosis, Western Blot analysis", "type": "cell-based", "method": "Thus, the ability of NAC to modulate cellular apoptosis proteins was evaluated by Western Blot analysis."}, "[6]": {"experiment": "N-acetylcysteine dose escalation, IV at time 0, 4 and 8 hours, followed for two weeks", "method": "Rats were given NAC IV at time 0, 4 hours, and 8 hours and were then followed for two weeks."}, "[7]": {"system": "cumulative cisplatin nephrotoxicity", "experiment": "Multiple low dose cisplatin nephrotoxicity model", "type": "in vivo", "settings": "rats"}, "[8]": {"settings": "cisplatin 10 mg/kg IP + NAC 400 mg/kg IP"}, "[9]": {"settings": "cisplatin 10 mg/kg IP + NAC 400 mg/kg PO"}}}
{"molecule": "CC(=O)N[C@@H](CS)C(=O)O", "note": "[NAC, N-acetylcysteine]", "values": [{"measurement": "half-life", "setting": "[1]", "result": "< 15", "unit": "min"}, {"measurement": "radiolabel in brain", "setting": "[2]; NAC 140 mg/kg, IA right carotid artery", "result": "high levels of radiolabel in the right cerebral hemisphere"}, {"measurement": "radiolabel in right cerebral hemisphere relative to IA without BBBD", "setting": "[2]; NAC 140 mg/kg, IA right carotid with osmotic BBBD", "result": "doubled"}, {"measurement": "brain delivery of NAC", "setting": "[2]; NAC 140 mg/kg, aortic infusion", "result": "negligible levels"}, {"measurement": "delivery to kidney", "setting": "[2]; NAC 140 mg/kg, aortic infusion", "result": "increased systemic delivery to kidney"}, {"measurement": "amount of NAC found in the brain", "setting": "[2]; radiolabelled + unlabeled NAC 140 mg/kg, IV", "result": "negligible amounts"}, {"measurement": "blood level of NAC (mean)", "setting": "[3]; IV 100 mg/kg", "result": "380 ± 160", "unit": "µM"}, {"measurement": "blood level of NAC (mean)", "setting": "[3]; IV 400 mg/kg", "result": "2190 ± 190", "unit": "µM"}, {"measurement": "blood level of NAC (mean)", "setting": "[3]; IV 1200 mg/kg", "result": "6220 ± 180", "unit": "µM"}, {"measurement": "serum concentration of metabolite oxidized NAC relative to NAC alone", "setting": "[3]; IV, 15 min after administration", "result": "approximately double"}, {"measurement": "serum NAC level", "setting": "[3]; PO 1200 mg/kg, at 15 min or 60 min after infusion", "result": "0.12 ± 0.12", "unit": "mM"}, {"measurement": "nephroprotection", "setting": "cisplatin nephrotoxicity; NAC 50 mg/kg IA in the descending aorta", "result": "significant nephroprotection"}, {"measurement": "nephroprotection", "setting": "cisplatin nephrotoxicity; NAC 50 mg/kg IV", "result": "not nephroprotective"}, {"measurement": "nephroprotection", "setting": "cisplatin nephrotoxicity; NAC 400 mg/kg IV", "result": "nephroprotective"}, {"measurement": "protection against cisplatin nephrotoxicity", "setting": "cisplatin nephrotoxicity; NAC 400 mg/kg PO via nasogastric tube, cisplatin 10 mg/m^2", "result": "not protective"}, {"measurement": "time to renal failure", "setting": "cisplatin nephrotoxicity; NAC 400 mg/kg PO, cisplatin 10 mg/m^2", "result": "≤ 3", "unit": "days"}, {"measurement": "BUN", "setting": "[4]; [8]", "result": "131.8 ± 8.2", "unit": "mg/dL"}, {"measurement": "CR (creatinine)", "setting": "[4]; [8]", "result": "2.3±0.38"}, {"measurement": "BUN", "setting": "[4]; cisplatin 10 mg/kg IP + NAC 400 mg/kg IV, p<0.0001", "result": "26.33 ± 6.76", "unit": "mg/dL"}, {"measurement": "CR (creatinine)", "setting": "[4]; cisplatin 10 mg/kg IP + NAC 400 mg/kg IV, p<0.0013", "result": "0.47±0.15"}, {"measurement": "BUN", "setting": "[4]; [9]", "result": "123.3 ± 8.2", "unit": "mg/dL"}, {"measurement": "CR (creatinine)", "setting": "[4]; [9]", "result": "1.77±0.21"}, {"measurement": "percent weight loss over the test period versus the other groups", "setting": "[4]; cisplatin + IV NAC, p<0.0001", "result": "significantly lower percent weight loss"}, {"measurement": "protection against cisplatin cytotoxicity", "setting": "[5]; NAC 8 hours after cisplatin", "result": "minimal"}, {"measurement": "effect on cytotoxic effects of cisplatin (apoptosis proteins)", "setting": "[5]; NAC added concurrent with cisplatin or up to 2 hours after", "result": "reversed the cytotoxic effects of cisplatin"}, {"measurement": "protection against cisplatin cytotoxicity", "setting": "[5]; NAC delayed more than 2 hours", "result": "protection was reduced"}, {"measurement": "safety/tolerability", "setting": "[6]; rat, in vivo, iv, 1200 mg/kg", "result": "safe and well-tolerated"}, {"measurement": "weight loss and signs of toxicity", "setting": "[6]; rat, in vivo, iv, 1200 mg/kg", "result": "no weight loss and no signs of toxicity"}, {"measurement": "tolerability of infusions", "setting": "[6]; rat, in vivo, iv, 1500 mg/kg", "result": "tolerated the infusions well"}, {"measurement": "loss of body weight", "setting": "[6]; rats, NAC IV 1500 mg/kg×3 (0, 4, 8 hours), within 2-3 days of infusion", "result": "5%-10%"}, {"measurement": "protection against nephrotoxicity", "setting": "[7]; NAC 800 mg/kg IP 30 minutes before each cisplatin treatment", "result": "no protective effect"}, {"measurement": "protection against nephrotoxicity", "setting": "[7]; NAC 800 mg/kg IV 30 minutes before each cisplatin treatment", "result": "protective against the cumulative nephrotoxicity"}]}
